In paper PMC5218480 (PLoS ONE, 2017):

System: MV-4-11 cells
Assay: Gene expression microarray analysis (Affymetrix PrimeView) and GSEA
Assay type: cell-based, human
Set-up: RFU PODN (11730768_x_at) / Fold change /veh PODN (11730768_x_at) / RFU LINC00158 (11744669_a_at) / Fold change /veh LINC00158 (11744669_a_at) / RFU DUSP10 (11751237_a_at) / Fold change /veh DUSP10 (11751237_a_at) / RFU ID3 (11757404_x_at) / Fold change /veh ID3 (11757404_x_at) / RFU PLEKHG5 (11737974_s_at) / Fold change /veh PLEKHG5 (11737974_s_at) / RFU LRRC4B (11730491_at) / Fold change /veh LRRC4B (11730491_at) / RFU GIMAP4 (11747438_a_at) / Fold change /veh GIMAP4 (11747438_a_at) / RFU KRT8 (11758183_x_at) / Fold change /veh KRT8 (11758183_x_at) / RFU CNN1 (11734310_a_at) / Fold change /veh CNN1 (11734310_a_at) / RFU VPS37D (11726825_at) / Fold change /veh VPS37D (11726825_at) / RFU C10orf10 (11716522_x_at) / Fold change /veh C10orf10 (11716522_x_at) / RFU KIR2DL2 /// KIR2DL4 /// KIR2DL5A /// KIR2DL5B /// KIR2DS1 /// KIR2DS2 /// KIR2DS3 /// KIR2DS4 /// KIR3DL3 /// KIR3DL3 /// KIR3DS1 (11738374_at) / Fold change /veh KIR2DL2 /// KIR2DL4 /// KIR2DL5A /// KIR2DL5B /// KIR2DS1 /// KIR2DS2 /// KIR2DS3 /// KIR2DS4 /// KIR3DL3 /// KIR3DL3 /// KIR3DS1 (11738374_at) / RFU C1QL1 (11718748_at) / Fold change /veh C1QL1 (11718748_at) / RFU TMPRSS4 (11747572_a_at) / Fold change /veh TMPRSS4 (11747572_a_at) / RFU HAMP (11756126_x_at) / Fold change /veh HAMP (11756126_x_at) / RFU RNFT2 (11725882_a_at) / Fold change /veh RNFT2 (11725882_a_at) / RFU NR4A2 (11747474_a_at) / Fold change /veh NR4A2 (11747474_a_at) / RFU ABCC12 (11746883_a_at) / Fold change /veh ABCC12 (11746883_a_at) / RFU TMEM136 (11760407_x_at) / Fold change /veh TMEM136 (11760407_x_at) / RFU CLDN22 /// WWC2 (11732394_at) / Fold change /veh CLDN22 /// WWC2 (11732394_at) / RFU HLA-DPB1 (11760878_x_at) / Fold change /veh HLA-DPB1 (11760878_x_at) / RFU SPINT1 (11716480_a_at) / Fold change /veh SPINT1 (11716480_a_at) / RFU GAP43 (11754022_s_at) / Fold change /veh GAP43 (11754022_s_at) / RFU A4GNT (11735810_at) / Fold change /veh A4GNT (11735810_at) / RFU PRB3 (11715151_x_at) / Fold change /veh PRB3 (11715151_x_at) / RFU TUBB4B (11761932_at) / Fold change /veh TUBB4B (11761932_at) / RFU CAPN14 (11732068_a_at) / Fold change /veh CAPN14 (11732068_a_at) / RFU TMCC2 (11721928_a_at) / Fold change /veh TMCC2 (11721928_a_at) / RFU IRGQ (11745062_a_at) / Fold change /veh IRGQ (11745062_a_at) / RFU FAM174B (11720279_a_at) / Fold change /veh FAM174B (11720279_a_at) / RFU TMPRSS4 (11748680_a_at) / Fold change /veh TMPRSS4 (11748680_a_at) / RFU FAM212B (11763350_a_at) / Fold change /veh FAM212B (11763350_a_at) / RFU PLEKHG5 (11743358_a_at) / Fold change /veh PLEKHG5 (11743358_a_at) / RFU ZSCAN30 (11745921_a_at) / Fold change /veh ZSCAN30 (11745921_a_at) / RFU CMKLR1 (11741424_a_at) / Fold change /veh CMKLR1 (11741424_a_at) / RFU LOC101060620 /// MAPK8IP1 (11723275_at) / Fold change /veh LOC101060620 /// MAPK8IP1 (11723275_at) / RFU SPTSSB (11747773_x_at) / Fold change /veh SPTSSB (11747773_x_at) / RFU PRSS12 (11739890_at) / Fold change /veh PRSS12 (11739890_at) / RFU BIN1 (11741810_x_at) / Fold change /veh BIN1 (11741810_x_at) / RFU WNT11 (11732464_a_at) / Fold change /veh WNT11 (11732464_a_at) / RFU C10orf10 (11716521_a_at) / Fold change /veh C10orf10 (11716521_a_at) / RFU C5orf56 (11738089_at) / Fold change /veh C5orf56 (11738089_at) / RFU CYB561 (11721691_x_at) / Fold change /veh CYB561 (11721691_x_at) / RFU ANKRD19P (11752326_a_at) / Fold change /veh ANKRD19P (11752326_a_at) / RFU OR2T12 /// OR2T33 /// OR2T8 (11738714_s_at) / Fold change /veh OR2T12 /// OR2T33 /// OR2T8 (11738714_s_at) / RFU VCAN (11748164_a_at) / Fold change /veh VCAN (11748164_a_at) / RFU JSRP1 (11732532_at) / Fold change /veh JSRP1 (11732532_at) / RFU KRTAP10-11 (11738290_x_at) / Fold change /veh KRTAP10-11 (11738290_x_at) / RFU MYO3A (11730013_a_at) / Fold change /veh MYO3A (11730013_a_at) / RFU EBF3 (11725865_a_at) / Fold change /veh EBF3 (11725865_a_at) / RFU CAMK2N1 (11719241_x_at) / Fold change /veh CAMK2N1 (11719241_x_at) / RFU C5orf56 (11738088_a_at) / Fold change /veh C5orf56 (11738088_a_at) / RFU OLFML3 (11715873_a_at) / Fold change /veh OLFML3 (11715873_a_at) / RFU LOC100653217 /// NTM (11731650_a_at) / Fold change /veh LOC100653217 /// NTM (11731650_a_at) / RFU MAPK11 (11762145_a_at) / Fold change /veh MAPK11 (11762145_a_at) / RFU FIZ1 (11724087_x_at) / Fold change /veh FIZ1 (11724087_x_at) / RFU OASL (11726364_x_at) / Fold change /veh OASL (11726364_x_at) / RFU SOX15 (11748057_x_at) / Fold change /veh SOX15 (11748057_x_at) / RFU CD79A (11719716_a_at) / Fold change /veh CD79A (11719716_a_at) / RFU HIST1H1D (11736915_at) / Fold change /veh HIST1H1D (11736915_at) / RFU CASKIN2 (11723855_a_at) / Fold change /veh CASKIN2 (11723855_a_at) / RFU LOC730098 (11760151_x_at) / Fold change /veh LOC730098 (11760151_x_at) / RFU OR4N2 (11742367_at) / Fold change /veh OR4N2 (11742367_at) / RFU PRRT2 (11749266_a_at) / Fold change /veh PRRT2 (11749266_a_at) / RFU SNX32 (11753110_a_at) / Fold change /veh SNX32 (11753110_a_at) / RFU CDHR5 (11726645_a_at) / Fold change /veh CDHR5 (11726645_a_at) / RFU RCAN1 (11760418_a_at) / Fold change /veh RCAN1 (11760418_a_at) / RFU FAM167A (11723789_a_at) / Fold change /veh FAM167A (11723789_a_at) / RFU FAM26E (11764081_at) / Fold change /veh FAM26E (11764081_at) / RFU ISYNA1 (11749810_s_at) / Fold change /veh ISYNA1 (11749810_s_at) / RFU ACY1 (11761880_at) / Fold change /veh ACY1 (11761880_at) / RFU 11764098_at / Fold change /veh 11764098_at / RFU SAMD14 (11745864_x_at) / Fold change /veh SAMD14 (11745864_x_at) / RFU NPB (11741838_a_at) / Fold change /veh NPB (11741838_a_at) / RFU TMPRSS6 (11731388_a_at) / Fold change /veh TMPRSS6 (11731388_a_at) / RFU KRTAP10-2 (11738614_at) / Fold change /veh KRTAP10-2 (11738614_at) / RFU ARHGAP8 /// PRR5-ARHGAP8 (11727945_x_at) / Fold change /veh ARHGAP8 /// PRR5-ARHGAP8 (11727945_x_at) / RFU KRTAP5-7 /// NADSYN1 (11734609_at) / Fold change /veh KRTAP5-7 /// NADSYN1 (11734609_at) / RFU RASL12 (11751679_a_at) / Fold change /veh RASL12 (11751679_a_at) / RFU CDKN2B (11736163_a_at) / Fold change /veh CDKN2B (11736163_a_at) / RFU PRF1 (11729649_at) / Fold change /veh PRF1 (11729649_at) / RFU, ZNF638 /// ZNF638-IT1 / Fold change vs veh, ZNF638 /// ZNF638-IT1 / RFU, PANK3 / Fold change vs veh, PANK3 / RFU, SH3YL1 / Fold change vs veh, SH3YL1 / RFU, ZEB2 / Fold change vs veh, ZEB2 / RFU, NRIP1 / Fold change vs veh, NRIP1 / RFU, PTTG1IP / Fold change vs veh, PTTG1IP / RFU, CAPN2 / Fold change vs veh, CAPN2 / RFU, MED14 / Fold change vs veh, MED14 / RFU, SNORA58 / Fold change vs veh, SNORA58 / RFU, C1orf63 / Fold change vs veh, C1orf63 / RFU, LRRFIP1 / Fold change vs veh, LRRFIP1 / RFU, NDUFAF7 / Fold change vs veh, NDUFAF7 / RFU, SLC12A2 / Fold change vs veh, SLC12A2 / RFU, IBTK / Fold change vs veh, IBTK / RFU, ESF1 / Fold change vs veh, ESF1 / Fold change vs veh, TMEM50B / RFU, TAOK1 / Fold change vs veh, TAOK1 / RFU, ACBD3 / Fold change vs veh, ACBD3 / RFU, TMA16 / Fold change vs veh, TMA16 / RFU, RWDD3 / Fold change vs veh, RWDD3 / RFU, BCAT1 / Fold change vs veh, BCAT1 / RFU, EDEM3 / Fold change vs veh, EDEM3 / RFU, TMEM33 / Fold change vs veh, TMEM33 / RFU, WDR75 / Fold change vs veh, WDR75 / RFU, AHCTF1 / Fold change vs veh, AHCTF1 / RFU, TFRC / Fold change vs veh, TFRC / RFU, ZDHHC17 / Fold change vs veh, ZDHHC17 / RFU, NOM1 / Fold change vs veh, NOM1 / RFU, ARL8B / Fold change vs veh, ARL8B / RFU, ZBTB11 / Fold change vs veh, ZBTB11 / RFU, TAMM41 / Fold change vs veh, TAMM41 / RFU, KIAA1704 /// LOC100996395 / Fold change vs veh, KIAA1704 /// LOC100996395 / RFU, ING1 / Fold change vs veh, ING1 / RFU, TRMT61B / Fold change vs veh, TRMT61B / RFU, FUBP3 / Fold change vs veh, FUBP3 / RFU, TP53 / Fold change vs veh, TP53 / RFU, TNKS2 / Fold change vs veh, TNKS2 / RFU, ZFP14 / Fold change vs veh, ZFP14 / RFU, ACTR2 / Fold change vs veh, ACTR2 / RFU, PPP3R1 / Fold change vs veh, PPP3R1 / RFU, PIK3R1 / Fold change vs veh, PIK3R1 / RFU, HNRNPA1 / Fold change vs veh, HNRNPA1 / RFU, RNF170 / Fold change vs veh, RNF170 / RFU, ZNF28 / Fold change vs veh, ZNF28 / RFU, RNGTT / Fold change vs veh, RNGTT / RFU, OGT / Fold change vs veh, OGT / RFU, BRD1 / Fold change vs veh, BRD1 / RFU, MARS / Fold change vs veh, MARS / RFU, ZNF655 / Fold change vs veh, ZNF655 / RFU, FAHD1 / Fold change vs veh, FAHD1 / RFU, BDP1 / Fold change vs veh, BDP1 / RFU, LRRCC1 / Fold change vs veh, LRRCC1 / RFU, ARID1A / Fold change vs veh, ARID1A / RFU, ZNF146 / Fold change vs veh, ZNF146 / RFU, ZNF330 / Fold change vs veh, ZNF330 / RFU, GPN3 / Fold change vs veh, GPN3 / RFU, C9orf123 / Fold change vs veh, C9orf123 / RFU, N4BP2L2 / Fold change vs veh, N4BP2L2 / RFU, ARFIP1 / Fold change vs veh, ARFIP1 / RFU, FAM179B / Fold change vs veh, FAM179B / RFU, BCL10 / Fold change vs veh, BCL10 / RFU, UHRF1BP1L / Fold change vs veh, UHRF1BP1L / RFU, BET1 / Fold change vs veh, BET1 / RFU, CNOT2 / Fold change vs veh, CNOT2 / RFU, ZNF268 / Fold change vs veh, ZNF268 / Fold change vs veh, ZNF507 / RFU, DGCR2 / Fold change vs veh, DGCR2 / RFU, WDSUB1 / Fold change vs veh, WDSUB1 / Fold change vs veh, HSP90B1 /// MIR3652 / RFU, ADSS / Fold change vs veh, ADSS / RFU, GK / Fold change vs veh, GK / RFU, ZNF148 / Fold change vs veh, ZNF148 / RFU, TAF9 / Fold change vs veh, TAF9 / RFU, SLC1A5 / Fold change vs veh, SLC1A5 / RFU, SLMO2 / Fold change vs veh, SLMO2 / RFU, ABCC4 / Fold change vs veh, ABCC4 / RFU, LOC101060439 /// RAP1B / Fold change vs veh, LOC101060439 /// RAP1B / RFU, RFX7 / Fold change vs veh, RFX7 / RFU, GTPBP10 / Fold change vs veh, GTPBP10 / RFU, CNEP1R1 / Fold change vs veh, CNEP1R1 / RFU, BIVM-ERCC5 /// ERCC5 / Fold change vs veh, BIVM-ERCC5 /// ERCC5 / RFU, ILF3 / Fold change vs veh, ILF3 / RFU 11762660_at / Fold change /veh 11762660_at / RFU VCAN (11757783_s_at) / Fold change /veh VCAN (11757783_s_at) / RFU DDX43 (11728927_at) / Fold change /veh DDX43 (11728927_at) / RFU KRT8 (11758188_x_at) / Fold change /veh KRT8 (11758188_x_at) / RFU NKD1 (11759106_at) / Fold change /veh NKD1 (11759106_at) / RFU SRD5A1 (11742802_a_at) / Fold change /veh SRD5A1 (11742802_a_at) / RFU TPSAB1 /// TPSB2 (11721975_s_at) / Fold change /veh TPSAB1 /// TPSB2 (11721975_s_at) / RFU GSTM3 (11746129_a_at) / Fold change /veh GSTM3 (11746129_a_at) / RFU IL23R (11737362_x_at) / Fold change /veh IL23R (11737362_x_at) / RFU TMEM51 (11727254_a_at) / Fold change /veh TMEM51 (11727254_a_at) / RFU PIWIL2 (11732686_x_at) / Fold change /veh PIWIL2 (11732686_x_at) / RFU ORM1 (11744905_x_at) / Fold change /veh ORM1 (11744905_x_at) / RFU CCDC152 (11743942_at) / Fold change /veh CCDC152 (11743942_at) / RFU ECM1 (11717891_a_at) / Fold change /veh ECM1 (11717891_a_at) / RFU IL23R (11748794_a_at) / Fold change /veh IL23R (11748794_a_at) / RFU TNFAIP8L3 (11732012_x_at) / Fold change /veh TNFAIP8L3 (11732012_x_at) / RFU MBOAT4 (11741988_at) / Fold change /veh MBOAT4 (11741988_at) / RFU 11764193_at / Fold change /veh 11764193_at / RFU TMEM53 (11763286_at) / Fold change /veh TMEM53 (11763286_at) / RFU MAGEB2 (11727129_at) / Fold change /veh MAGEB2 (11727129_at) / RFU TMEM200A (11744735_a_at) / Fold change /veh TMEM200A (11744735_a_at) / RFU CCDC152 (11751479_a_at) / Fold change /veh CCDC152 (11751479_a_at) / RFU FAM211A (11726209_a_at) / Fold change /veh FAM211A (11726209_a_at) / RFU RGS16 (11746705_a_at) / Fold change /veh RGS16 (11746705_a_at) / RFU VCAN (11755009_s_at) / Fold change /veh VCAN (11755009_s_at) / RFU RHOB (11743442_s_at) / Fold change /veh RHOB (11743442_s_at) / RFU RGS16 (11720943_a_at) / Fold change /veh RGS16 (11720943_a_at) / RFU RGS16 (11720944_at) / Fold change /veh RGS16 (11720944_at) / RFU, VPS4B / Fold change vs veh, VPS4B / RFU, CREB1 / Fold change vs veh, CREB1 / RFU, DNAJC13 / Fold change vs veh, DNAJC13 / RFU, GNAQ / Fold change vs veh, GNAQ / RFU, CDK5R1 / Fold change vs veh, CDK5R1 / RFU, ZRANB3 / Fold change vs veh, ZRANB3 / RFU, CUL4A / Fold change vs veh, CUL4A / RFU, CCNY / Fold change vs veh, CCNY / RFU, UFL1 / Fold change vs veh, UFL1 / RFU, COG3 / Fold change vs veh, COG3 / RFU, DIAPH2 / Fold change vs veh, DIAPH2 / RFU, SKA2 / Fold change vs veh, SKA2 / RFU, AFF3 / Fold change vs veh, AFF3 / RFU, LMF1 / Fold change vs veh, LMF1 / RFU, IPO11 / Fold change vs veh, IPO11 / RFU, DFFB / Fold change vs veh, DFFB / RFU, FOXP1 / Fold change vs veh, FOXP1 / RFU, CARD8 / Fold change vs veh, CARD8 / RFU, STRN3 / Fold change vs veh, STRN3 / RFU, ADK / Fold change vs veh, ADK / RFU, RASSF2 / Fold change vs veh, RASSF2 / RFU, WIPF1 / Fold change vs veh, WIPF1 / RFU, LARP1B / Fold change vs veh, LARP1B / RFU, RASA1 / Fold change vs veh, RASA1 / RFU, RB1 / Fold change vs veh, RB1 / RFU, PPFIA1 / Fold change vs veh, PPFIA1 / RFU, MAT2A / Fold change vs veh, MAT2A / RFU, CCT5 / Fold change vs veh, CCT5 / RFU, WDR92 / Fold change vs veh, WDR92 / RFU, CUX1 / Fold change vs veh, CUX1 / RFU, TTC7A / Fold change vs veh, TTC7A / RFU, TMEM135 / Fold change vs veh, TMEM135 / RFU, DEPTOR / Fold change vs veh, DEPTOR / RFU, CPM / Fold change vs veh, CPM / RFU, DNAJB6 / Fold change vs veh, DNAJB6 / RFU, CACNA2D3 / Fold change vs veh, CACNA2D3 / RFU, DTX4 / Fold change vs veh, DTX4 / RFU, TFCP2 / Fold change vs veh, TFCP2 / RFU, GMCL1 /// GMCL1P1 / Fold change vs veh, GMCL1 /// GMCL1P1 / RFU, AEBP2 / Fold change vs veh, AEBP2 / RFU, SNHG1 /// SNORD22 /// SNORD25 /// SNORD26 /// SNORD27 /// SNORD28 /// SNORD29 /// SNORD31 / Fold change vs veh, SNHG1 /// SNORD22 /// SNORD25 /// SNORD26 /// SNORD27 /// SNORD28 /// SNORD29 /// SNORD31 / Fold change (Aza/veh), C12orf56 (ProbeSet 11735607_a_at) / Fold change (ACY-1035/veh), C12orf56 (ProbeSet 11735607_a_at) / Fold change (Aza/veh), FGFR1OP (ProbeSet 11751329_s_at) / Fold change (ACY-1035/veh), FGFR1OP (ProbeSet 11751329_s_at) / Fold change (Aza/veh), VPS36 (ProbeSet 11739960_a_at) / Fold change (ACY-1035/veh), VPS36 (ProbeSet 11739960_a_at) / RFU SYPL1 (11715823_x_at) / Fold change /veh SYPL1 (11715823_x_at) / RFU IGFBP7 (11715501_s_at) / Fold change /veh IGFBP7 (11715501_s_at) / RFU REEP3 (11722064_at) / Fold change /veh REEP3 (11722064_at) / RFU IGLL1 (11728026_x_at) / Fold change /veh IGLL1 (11728026_x_at): dose or concentration left out as unconfirmed
Conditions: ProbeSet 11758919_x_at; LIST D

**Q.** For `Nc1ccc(-c2cccs2)cc1NC(=O)c1ccc2c(c1)cc(C1CC1)n2CCN1CCOCC1` [ACY-1035], which “RFU, TFCP2” value is on record?
**A.** 87.13 RFU
